Assays:
DAX1 = DAX1 reporter assay (KJMGER8/pAGal9p4‐hDAX1 cells, luciferase); type: cell-based, human
Protocol: pAGal9‐hDAX1 and pAPPRE×10‐Luc + were transfected into KJMGER8 cells by electroporation using a Gene Pulser (Bio‐Rad Laboratories, Hercules, CA, USA), and clones stably expressing the DAX1 and luciferase reporter genes under the control of PPRE were selected. The obtained clone was termed KJMGER8/pAGal9p4‐hDAX1. KJMGER8/pAGal9p4‐hDAX1 cells (1.8 × 10^4 cells/well) were seeded in 384‐well white plates (Greiner Japan, Tokyo, Japan) and cultured in RPMI1640‐IPTSG medium containing 10 nM 17β‐estradiol (E2; Sigma‐Aldrich), dissolved in ethanol, with test compounds at concentration ranges of 0.01 to 10,000 nM or vehicle (dimethyl sulfoxide [DMSO]). The final DMSO concentration was ≤0.3%, and the ethanol concentration was 0.1%. The next day, Blight‐Glo Luciferase Assay Reagent (Promega, Madison, WI, USA) was added to the medium. The luciferase activity was measured using a TopCount NXT system (PerkinElmer, Waltham, MA, USA). IC50 values were calculated using XLfit version 4 (ID Business Solutions, Surrey, UK).
A DAX1 reporter assay system was constructed with the estrogen‐inducible Namalwa cell (KJMGER8 cell) by co‐transfection with pAGal9‐hDAX1 and pAPPRE×10‐Luc+.[18] In the obtained cell line KJMGER8/pAGal9p4‐hDAX1, DAX1 expression is induced by E2 treatment, and the expressed DAX1 increases luciferase expression. Reporter activity was increased by E2 treatment as expected (Figure S2). […] Using this DAX1 reporter assay system, small‐molecule compounds in an in‐house library were screened to obtain DAX1 inhibitors, and K‐234 was identified (Figure 1).
pAGal9-hDAX1 and pAPPRE×10-Luc+ were transfected into KJMGER8 cells by electroporation using a Gene Pulser (Bio-Rad Laboratories, Hercules, CA, USA), and clones stably expressing the DAX1 and luciferase reporter genes under the control of PPRE were selected. The obtained clone was termed KJMGER8/pAGal9p4-hDAX1. KJMGER8/pAGal9p4-hDAX1 cells (1.8×10^4 cells/well) were seeded in 384-well white plates (Greiner Japan, Tokyo, Japan) and cultured in RPMI1640-IPTSG medium containing 10 nM 17β-estradiol (E2; Sigma-Aldrich), dissolved in ethanol, with test compounds at concentration ranges of 0.01 to 10000 nM or vehicle (dimethyl sulfoxide [DMSO]). The final DMSO concentration was ≤0.3%, and the ethanol concentration was 0.1%. The next day, Blight-Glo Luciferase Assay Reagent (Promega, Madison, WI, USA) was added to the medium. The luciferase activity was measured using a TopCount NXT system (PerkinElmer, Waltham, MA, USA). IC50 values were calculated using XLfit version 4 (ID Business Solutions, Surrey, UK)

SK‐ES‐1 = SK‐ES‐1 xenograft in SCID mice; type: in vivo, mouse; conditions: 10, 30, or 100 mg/kg orally once daily
Protocol: All animal studies were performed in accordance with Standards for Proper Conduct sof Animal Experiments at Kyowa Kirin Co., Ltd., under the approval of the company's Institutional Animal Care and Use Committee. Male C.B17/Icr‐scid/scidJcl (SCID) mice (5 weeks old) were purchased from CREA Japan (Tokyo, Japan). K‐733 was suspended in 0.5% (w/v) methylcellulose 400 (MC400; FUJIFILM Wako Pure Chemical) and orally administered to mice once daily. Ewing's cells were suspended in Dulbecco's phosphate‐buffered saline (DPBS; Thermo Fisher Scientific, Waltham, MA, USA) and injected subcutaneously into the ventral side of mice at 5 × 10^6 cells/0.1 mL/mouse for A‐673 and TC‐71 and 1 × 10^7 cells/0.1 mL/mouse for CADO‐ES1 and SK‐ES‐1. In experiments using TC‐71 cells, 0.3 mg of anti‐asialo GM1 antibody (FUJIFILM Wako Pure Chemical) was injected intraperitoneally 1 day before TC‐71 injection. The tumor size and body weight were measured every 3 or 4 days. The tumor volume was calculated using the following equation: Tumor volumemm^3=DL×DS×DS×1/2, where DL and DS represent the long diameter and short diameter, respectively. The pharmacokinetic analysis of K‐733 is described in Materials and Methods S2.

Cc1nc(-c2ccc(C3c4[nH]c5ccc(Cl)cc5c4CCN3C(=O)Oc3ccccc3)cc2)no1 (stereo not drawn) [K-733, phenyl 6‐chloro‐1‐(4‐(5‐methyl‐1,2,4‐oxadiazol‐3‐yl)phenyl)‐1,3,4,9‐tetrahydro‐2H‐pyrido[3,4‐b]indole‐2‐carboxylate]
IC50 (DAX1; Homo sapiens, KJMGER8/pAGal9p4‐hDAX1 cells, 10 nM E2, overnight, read-out: IC50 for inhibition of DAX1 reporter activity): 9.01 nM | Effect of uridine addition on inhibition of DAX1 reporter activity (DAX1; uridine 100 μM, overnight): completely abrogated | Tumor growth, SK‐ES‐1 xenograft (SK‐ES‐1): reduced dose‐dependently

Source: PMC10166890, “Screening for DAX1/EWS‐FLI1 functional inhibitors identified dihydroorotate dehydrogenase as a therapeutic target for Ewing's sarcoma” (Cancer Medicine, 2023)
